Reference: patent publication US5808137A, “Chalcones and esters thereof with antiproliferative activity in uterus, ovary and breast tumors” (Indena S.p.A., priority 1994, dated 1998)
Where two headings read alike, the source gives them in different places.

Columns and labels:
OVCA 433 cancer cells = experiment: Antiproliferative activity on OVCA 433 cancer cells in vitro (direct cell count); format: cell-based; conditions: read-out: IC50 ** Concentration giving a 50% inhibition on cell proliferation
Description: (§1) The evaluation of the estrogen receptor binding has been carried out on tumour cells of ovary and other organs. Cells were growth in a monolayer culture on the minimum essential medium added with calf serum and with 200 units/ml of penicillin to maintain the medium sterile. In order to make the tests reproducible, the cells were trypsinated every week and placed on plates at a density of […] and incubated at 37° C. under air atmosphere containing 5% CO2 and humidity. […] After 24 hours the substrate was replaced with fresh substrate and the chalcones dissolved in absolute ethanol were added. […] The treatment described above was repeated at 24 hours time intervals during the 72 hours time of the test. […] At the end of the incubation time, the cells were quickly washed with fresh substrate and incubated for 30 minutes with 1M NaOH. The radioactivity was measured by means of a scintiller and the binding specificity was calculated as the difference between the preparations containing or not diethylstilbestrol. The results are expressed as the number of binding sites per cell, according to conventional methods. The inhibition on the cell proliferation is evaluated by direct count of the cells comparing the growth of the controls versus that of the treated.

[1] = system: uterus, ovary and breast tumour cell lines; experiment: Antiproliferative activity on uterus, ovary and breast tumour cell lines; format: cell-based; conditions: result in words
Description: as §1

[2] = system: estrogen receptors of type II; experiment: Binding affinity to estrogen receptors of type II (displacement of labelled estradiol in tumour cells); conditions: for IC50: read-out: IC50 *** Concentration giving a 50% displacement of labelled estradiol (40 nM) from the receptor, labelled estradiol 40 nM; for affinity to estrogen receptors of type II: result in words
Description: as §1

[3] = molecular target: estrogen receptors of type II; conditions: read-out: apparent affinity dissociation constant KD for estradiol; type II sites, rat uterus; cited from earlier work
human leukemia cells = conditions: result in words; cited from earlier work
[4] = OVCA433, OVCA 433 cancer cells in vitro, 72 hours test

IC50 (OVCA 433 cancer cells; [4]) [µM]	IC50 [2] [µM]	Structure (SMILES)	antiproliferative activity on uterus, ovary and breast tumour cell lines [1]	affinity to estrogen receptors of type II [2]	IC50 (OVCA 433 cancer cells; OVCA433, 72 h) [µM]	Kd [3] [µM]	inhibiting activity on the proliferation of human leukemia cells (human leukemia cells)
1.2	1.2	CC(C)=CCc1c(O)ccc(C(=O)/C=C/c2ccccc2)c1O [Chalcone S1, Isocordoin]	marked antiproliferative activity	remarkable affinity	–	–	–
17	10.6	COc1ccc(C(=O)/C=C/c2ccc(O)cc2)c(O)c1CC=C(C)C [Chalcone S2, 4-hydroxyderricin]	marked antiproliferative activity	remarkable affinity	–	–	–
4.2	18	COc1ccc(C(=O)/C=C/c2ccccc2O)c(O)c1CC=C(C)C [Chalcone S3, 2-hydroxyderricin]	marked antiproliferative activity	remarkable affinity	–	–	–
5	12.1	COc1ccc(C(=O)/C=C/c2cccc(O)c2)c(O)c1CC=C(C)C [Chalcone S4, 3-hydroxyderricin]	marked antiproliferative activity	remarkable affinity	–	–	–
2.5	0.6	O=C(/C=C/c1ccccc1)c1ccc(O)cc1O [Chalcone S5, 2',4'-dihydroxychalcone]	marked antiproliferative activity	remarkable affinity	–	–	–
6	4.2	CC(C)=CCOc1ccc(C(=O)/C=C/c2ccccc2)c(O)c1 [Chalcone S7, Cordoin]	marked antiproliferative activity	remarkable affinity	–	–	–
–	–	CC(C)=CCOc1ccc(C(=O)/C=C/c2ccc(O)cc2)c(O)c1 [Chalcone S8, 4-hydroxycordoin, reference compound]	–	no affinity	–	–	–
–	–	CC(C)=CCOc1ccc(C(=O)CCc2ccccc2)c(O)c1 [Chalcone S9, Dihydrocordoin, reference compound]	–	no affinity	–	–	–
–	–	C[C@]12CC[C@@H]3c4ccc(O)cc4CC[C@H]3[C@@H]1CC[C@@H]2O [estradiol]	–	–	–	0.01 to 0.02	–
–	–	O=c1c(O)c(-c2ccc(O)c(O)c2)oc2cc(O)cc(O)c12 [quercetin]	–	–	–	–	some inhibiting activity

Structure (SMILES)	IC50 (OVCA 433 cancer cells; [4]) [µM]	IC50 [2] [µM]	antiproliferative activity on uterus, ovary and breast tumour cell lines [1]	affinity to estrogen receptors of type II [2]	IC50 (OVCA 433 cancer cells; OVCA433, 72 h) [µM]	Kd [3] [µM]	inhibiting activity on the proliferation of human leukemia cells (human leukemia cells)
O=C(/C=C/c1ccc(O)cc1)c1ccc(O)cc1O [Chalcone S6, 4,2',4'-trihydroxychalcone]	–	3.2	marked antiproliferative activity	remarkable affinity	5	–	–
